Reference: BindingDB's records for doi:10.1016/j.bmc.2019.05.024 (Charles University, 2019)

assay: Inhibition of influenza A virus chicken/Nakorn-Patom/Thailand/CU-K2-2004 Neuraminidase N1 at pH 7.4 by DIANA assay

In order of falling Ki:
1. CCC(CC)O[C@H]1CC(C(=O)O)=C[C@@H](n2cc(CN3CCS(=O)(=O)CC3)nn2)[C@@H]1NC(C)=O  94 µM
2. CCC(CC)O[C@@H]1C=C(C(=O)O)C[C@H](n2cc(COCC(C)(CO)CO)nn2)[C@H]1NC(C)=O  49 µM
3. CCC(CC)O[C@@H]1C=C(C(=O)O)C[C@H](n2cc(C[C@@]3(C(=O)O)CCCN3)nn2)[C@H]1NC(C)=O  49 µM
4. CCC(CC)O[C@@H]1C=C(C(=O)O)C[C@H](n2cc(C[C@H](N)C(=O)O)nn2)[C@H]1NC(C)=O  25 µM
5. CCC(CC)O[C@@H]1C=C(C(=O)O)C[C@H](n2cc(CNc3cc(F)ccc3OC)nn2)[C@H]1NC(C)=O  11 µM
6. CCC(CC)O[C@@H]1C=C(C(=O)O)C[C@H](n2cc(CN(C)c3ccc(OC)cc3)nn2)[C@H]1NC(C)=O  8.1 µM
7. CCC(CC)O[C@@H]1C=C(C(=O)O)C[C@H](n2cc(-c3cccs3)nn2)[C@H]1NC(C)=O  7.1 µM
8. CCC(CC)O[C@@H]1C=C(C(=O)O)C[C@H](NCc2cn(CCN3CCS(=O)(=O)CC3)nn2)[C@H]1NC(C)=O  6.2 µM
9. CCC(CC)O[C@@H]1C=C(C(=O)O)C[C@H](n2cc(CNc3ccc(NC(C)=O)cc3)nn2)[C@H]1NC(C)=O  5.6 µM
10. CCC(CC)O[C@@H]1C=C(C(=O)O)C[C@H](n2cc(CO)nn2)[C@H]1NC(C)=O  5.3 µM
11. CCC(CC)O[C@@H]1C=C(C(=O)O)C[C@H](n2cc(CNc3ccccc3C(N)=O)nn2)[C@H]1NC(C)=O  5.1 µM
12. CCC(CC)O[C@@H]1C=C(C(=O)O)C[C@H](n2cc(CNc3ccc(C(N)=O)c(C(F)(F)F)c3)nn2)[C@H]1NC(C)=O  5 µM
13. CCC(CC)O[C@@H]1C=C(C(=O)O)C[C@H](n2cc(CNc3ccccc3)nn2)[C@H]1NC(C)=O  5 µM
14. CCC(CC)O[C@@H]1C=C(C(=O)O)C[C@H](NCc2cn(CC(=O)O)nn2)[C@H]1NC(C)=O  4.3 µM
15. CCC(CC)O[C@@H]1C=C(C(=O)O)C[C@H](n2cc(-c3ccsc3)nn2)[C@H]1NC(C)=O  4 µM
16. CCC(CC)O[C@@H]1C=C(C(=O)O)C[C@H](NCc2cn(CC(=O)N(C)C)nn2)[C@H]1NC(C)=O  3.1 µM
17. CCC(CC)O[C@@H]1C=C(C(=O)O)C[C@H](n2cc(CNc3cccc(C(F)(F)F)c3)nn2)[C@H]1NC(C)=O  1.9 µM
18. CCC(CC)O[C@@H]1C=C(C(=O)O)C[C@H](NCc2cn(CC(=O)NC)nn2)[C@H]1NC(C)=O  0.74 µM
19. CCC(CC)O[C@@H]1C=C(C(=O)O)C[C@H](NCc2cn(CC(C)(CO)CO)nn2)[C@H]1NC(C)=O  0.71 µM
20. CCC(CC)O[C@@H]1C=C(C(=O)O)C[C@H](NCc2cn(CCO)nn2)[C@H]1NC(C)=O  0.47 µM
